In patent US20240058334A1, “METHODS FOR TREATING SMALL CELL LUNG CANCER AND OTHER NEUROENDOCRINE CANCERS” (AstraZeneca AB, priority 2021, published 2024):

Test system: SCLC cell lines
Experiment: 96 hr proliferation assay in SCLC cell lines
Type: cell-based
Details: for response to single agent ATR inhibitor: the three cell lines with greater than additive response to the combination, SLFN11 low group

Structure (SMILES)	lurbinectedin IC50 values (cells with low expression of SLFN11 (FIG. 1))	response to single agent ATR inhibitor
COc1ccc2[nH]c3c(c2c1)CCN[C@]31CS[C@@H]2c3c(OC(C)=O)c(C)c4c(c3[C@H](COC1=O)N1[C@@H]2[C@H]2c3c(cc(C)c(OC)c3O)C[C@@H]([C@@H]1O)N2C)OCO4 [lurbinectedin]	higher	
C[C@@H]1COCCN1c1cc(C2([S@](C)(=N)=O)CC2)nc(-c2cc[nH]c3nccc2-3)n1 [ceralasertib]		relatively resistant
CNCc1ccc(-c2cc(-c3nc(-c4ccc(S(=O)(=O)C(C)C)cc4)cnc3N)on2)cc1 [berzosertib]		relatively resistant
